# How the values were obtained:
# [1] = tested on: Zar1 5′-UTR (RNA, G4) UGGGCGGGCGAGGCGCGGGACGCACCC; experiment: CD titration; conditions: 100 mM KCl; 10 mM Tris-HCl pH 7.4, 25°C; 5 μM RNA, 5-20 μM BYBX
# [2] = tested on: Zar1 5′-UTR (RNA, G4) UGGGCGGGCGAGGCGCGGGACGCACCC; experiment: CD melting at 262 nm; conditions: 20 mM KCl; 10 mM Tris-HCl pH 7.4; 10 μM BYBX, 5 μM RNA
# [3] = tested on: Zar1 5′-UTR (RNA, G4) UGGGCGGGCGAGGCGCGGGACGCACCC; experiment: fluorescence titration (ex 447 nm, em 538 nm); conditions: 100 mM KCl; 10 mM Tris-HCl pH 7.4, 25°C; 1 μM BYBX, RNA 0-1.9 μM; 50-fold enhancement
# [4] = tested on: Zar1 5′-UTR^ΔrG4 (RNA, single strand) UGAACAAACGAAACACGAAACGCACCC; experiment: CD melting at 262 nm; conditions: 20 mM KCl; 10 mM Tris-HCl pH 7.4; 10 μM BYBX, 5 μM RNA; no melting transition seen
# [5] = tested on: Zar1 5′-UTR^ΔrG4 (RNA, single strand) UGAACAAACGAAACACGAAACGCACCC; experiment: fluorescence titration (ex 447 nm, em 538 nm); conditions: 100 mM KCl; 10 mM Tris-HCl pH 7.4, 25°C; 1 μM BYBX; almost no emission
# [6] = tested on: Zar1 5′-UTR (RNA, G4) UGGGCGGGCGAGGCGCGGGACGCACCC; experiment: ITC; conditions: 60 mM KCl, 25 mM KH2PO4; pH 7.4, 0.4% DMSO, 25°C; one set of sites; 10 μM RNA, 100 μM BYBX in syringe
# [7] = tested on: Zar1 5′-UTR^ΔrG4 (RNA, single strand) UGAACAAACGAAACACGAAACGCACCC; experiment: ITC; conditions: 60 mM KCl, 25 mM KH2PO4; pH 7.4, 0.4% DMSO, 25°C; n.d., signal too weak; 100 μM BYBX in syringe
structure (smiles),measurement,setting,value
CN1/C(=C/C2=[N+](CC(N)=O)c3ccc4ccccc4c3C2(C)C)Sc2ccccc21,binding,[1],yes
same,ΔTm,[2],11 °C
same,binding,[3],yes
same,ΔTm,[4],0.06 °C
same,binding,[5],no
same,KD,[6],393 nM
same,binding,[7],no

# Source: publication PMC12041855 (2025)
